# Source: ChEMBL document CHEMBL5131471, “Design, synthesis and mechanism studies of novel dual PARP1/BRD4 inhibitors against pancreatic cancer” (Eur J Med Chem, 2022)
# Calls of active or inactive are those of the source. The calls are words filed in the database; no cut-off is given here.
# Assays:
# [1] = Toxicity in nude mouse xenografted with human SW1990 cells assessed as liver damage at 45 mg/kg, ip administered for 28 days by H and E staining based fluorescence microscopic analysis; type: organism-based; details: in vivo, 672 h, time 28 day
# SW1990 [2] = assay: Induction of DNA damage in human SW1990 cells assessed as increase in tail DNA at 6 uM incubated for 4 days by comet assay; type: functional, cell-based; details: time 4.0 day
# SW1990 [3] = assay: Effect on CDC25B gene expression in human SW1990 cells at 6 uM by Q-PCR analysis; type: functional, cell-based
# SW1990 [4] = assay: Effect on BRCA1 gene expression in human SW1990 cells at 6 uM by Q-PCR analysis; type: functional, cell-based
# SW1990 [5] = assay: Effect on BRCA2 gene expression in human SW1990 cells at 6 uM by Q-PCR analysis; type: functional, cell-based
# SW1990 [6] = assay: Effect on FOXO1 gene expression in human SW1990 cells at 6 uM by Q-PCR analysis; type: functional, cell-based
# SW1990 [7] = assay: Upregulation of CCNB1 expression in human SW1990 cells at 6 uM measured after 4 days by Western blot analysis; type: functional, cell-based; details: time 4.0 day
# SW1990 [8] = assay: Upregulation of Rad51 expression in human SW1990 cells at 6 uM measured after 4 days by Western blot analysis; type: functional, cell-based; details: time 4.0 day
# SW1990 [9] = assay: Induction of BRCA2 accumulation in nucleus of human SW1990 cells at 6 uM measured after 4 days by Western blot analysis; type: functional, cell-based; details: time 4.0 day
# Mus musculus [10] = assay: Upregulation of […] expression in nude mouse xenografted with human SW1990 cells at 45 mg/kg, ip measured after 28 days by DAPI staining based laser confocal microscopic analysis; type: functional, organism-based; details: time 28.0 day
# Mus musculus [11] = assay: Upregulation of BRD4 expression in nude mouse xenografted with human SW1990 cells at 45 mg/kg, ip measured after 28 days by DAPI staining based laser confocal microscopic analysis; type: functional, organism-based; details: time 28.0 day
# SW1990 [12] = assay: Induction of apoptosis in human SW1990 cells assessed as early apoptotic cells at 4 uM measured after 4 days by Annexin V-FITC and propidium iodide staining based flow cytometry (reference value: 1.62%); type: functional; details: time 4 day
# SW1990 [13] = assay: Induction of cell cycle arrest in human SW1990 cells assessed as accumulation of cells at G0/G1 phase at 4 uM incubated for 4 days by propidium iodide staining based flow cytometry (reference value: 64.79%); type: functional; details: time 4 day
# SW1990 [14] = assay: Induction of apoptosis in human SW1990 cells assessed as necrotic cells at 1 uM measured after 4 days in presence of 3 uM Olaparib by Annexin V-FITC and propidium iodide staining based flow cytometry (reference value: 2.45%); type: functional; details: time 4 day
# SW1990 [15] = assay: Induction of cell cycle arrest in human SW1990 cells assessed as accumulation of cells at G0/G1 phase at 1 uM incubated for 4 days in presence of 3 uM Olaparib by propidium iodide staining based flow cytometry (reference value: 64.79%); type: functional; details: time 4 day
# SW1990 [16] = assay: Induction of DNA damage in human SW1990 cells assessed as increase in tail DNA at 4 uM incubated for 4 days by comet assay; type: functional, cell-based; details: time 4.0 day
# SW1990 [17] = assay: Effect on CDC25A gene expression in human SW1990 cells at 4 uM by Q-PCR analysis; type: functional, cell-based
# SW1990 [18] = assay: Effect on BRCA1 gene expression in human SW1990 cells at 4 uM by Q-PCR analysis; type: functional, cell-based
# SW1990 [19] = assay: Effect on Rad51 gene expression in human SW1990 cells at 4 uM by Q-PCR analysis; type: functional, cell-based
# SW1990 [20] = assay: Effect on CDC25A gene expression in human SW1990 cells at 1 uM in presence of Olaparib by Q-PCR analysis; type: functional, cell-based
# SW1990 [21] = assay: Effect on CDK1 gene expression in human SW1990 cells at 1 uM in presence of Olaparib by Q-PCR analysis; type: functional, cell-based
# SW1990 [22] = assay: Effect on E2F2 gene expression in human SW1990 cells at 1 uM in presence of Olaparib by Q-PCR analysis; type: functional, cell-based
# SW1990 [23] = assay: Effect on BRCA1 gene expression in human SW1990 cells at 1 uM in presence of Olaparib by Q-PCR analysis; type: functional, cell-based
# [24] = Toxicity in nude mouse xenografted with human SW1990 cells assessed as liver damage at 30 mg/kg, ip administered for 28 days by H and E staining based fluorescence microscopic analysis; type: organism-based; details: in vivo, 672 h, time 28 day
# Mus musculus [25] = assay: Inhibition of BRD4 expression in nude mouse xenografted with human SW1900 cells at 30 mg/kg, ip administered for 28 days by Q-PCR analysis; type: functional, organism-based; details: time 28.0 day
# SW1990 [26] = assay: Induction of cell cycle arrest in human SW1990 cells assessed as accumulation of cells at S phase at 1 uM incubated for 4 days by propidium iodide staining based flow cytometry (reference value: 29.32%); type: functional; details: time 4 day
# SW1990 [27] = assay: Induction of cell cycle arrest in human SW1990 cells assessed as accumulation of cells at G2/M phase at 1 uM incubated for 4 days by propidium iodide staining based flow cytometry (reference value: 5.89%); type: functional; details: time 4 day
# Mus musculus [28] = assay: Inhibition of CCNB1 expression in nude mouse xenografted with human SW1990 cells at 30 mg/kg, ip measured after 4 days by Q-PCR analysis; type: functional, organism-based; details: time 4.0 day
# Mus musculus [29] = assay: Inhibition of CDC25B expression in nude mouse xenografted with human SW1990 cells at 30 mg/kg, ip measured after 4 days by Western blot analysis; type: functional, organism-based; details: time 4.0 day
# SW1990 [30] = assay: Inhibition of homologous recombinant repair in human SW1990 cells assessed as reversal of Olaparib-induced c-Myc expression at 1 to 2 uM after 4 days by Western blot analysis; type: functional, cell-based; details: dose 1-2 µM, time 4.0 day
# SW1990 [31] = assay: Inhibition of homologous recombinant repair in human SW1990 cells assessed as reversal of Olaparib-induced TOPBP1 expression at 1 to 2 uM after 4 days by Western blot analysis; type: functional, cell-based; details: dose 1-2 µM, time 4.0 day
# Mus musculus [32] = assay: Inhibition of homologous recombinant repair in nude mouse xenografted with human SW1990 cells assessed as reversal of olaparib-induced BRCA2 expression at 30 mg/kg, ip after 4 days by Western blot analysis; type: functional, organism-based; details: time 4.0 day
# Mus musculus [33] = assay: Inhibition of homologous recombinant repair in nude mouse xenografted with human SW1990 cells assessed as reversal of olaparib-induced c-Myc expression at 30 mg/kg, ip measured after 4 days by Western blot analysis; type: functional, organism-based; details: time 4.0 day
# SW1990 [34] = assay: Effect on CDC25A gene expression in human SW1990 cells at 1 to 2 uM by Q-PCR analysis; type: functional, cell-based; details: dose 1-2 µM
# SW1990 [35] = assay: Effect on CCNB1 gene expression in human SW1990 cells at 1 to 2 uM by Q-PCR analysis; type: functional, cell-based; details: dose 1-2 µM
# SW1990 [36] = assay: Effect on CCND1 gene expression in human SW1990 cells at 1 to 2 uM by Q-PCR analysis; type: functional, cell-based; details: dose 1-2 µM
# SW1990 [37] = assay: Effect on E2F2 gene expression in human SW1990 cells at 1 to 2 uM by Q-PCR analysis; type: functional, cell-based; details: dose 1-2 µM
# SW1990 [38] = assay: Effect on TOPBP1 gene expression in human SW1990 cells at 1 to 2 uM by Q-PCR analysis; type: functional, cell-based; details: dose 1-2 µM
# SW1990 [39] = assay: Effect on MDC1 gene expression in human SW1990 cells at 1 to 2 uM by Q-PCR analysis; type: functional, cell-based; details: dose 1-2 µM
# SW1990 [40] = assay: Inhibition of CDK1 protein expression in human SW1990 cells at 1 to 2 uM measured after 4 days by Western blot analysis; type: functional, cell-based; details: dose 1-2 µM, time 4.0 day
smiles,measurement,setting,value
O=C(c1cc(Cc2n[nH]c(=O)c3ccccc23)ccc1F)N1CCN(C(=O)C2CC2)CC1 [OLAPARIB],Activity,[1],Non-Toxic
same,Activity,SW1990 [2],Active
same,Activity,SW1990 [3],Active
same,Activity,SW1990 [4],Active
same,Activity,SW1990 [5],Active
same,Activity,SW1990 [6],Active
same,Activity,SW1990 [7],Active
same,Activity,SW1990 [8],Active
same,Activity,SW1990 [9],Active
same,Activity,Mus musculus [10],Active
same,Activity,Mus musculus [11],Active
Cc1sc2c(c1C)C(c1ccc(Cl)cc1)=N[C@@H](CC(=O)OC(C)(C)C)c1nnc(C)n1-2,Activity,SW1990 [12],1.73%
same,Activity,SW1990 [13],75.06%
same,Activity,SW1990 [14],5.76%
same,Activity,SW1990 [15],71.53%
same,Activity,SW1990 [16],Active
same,Activity,SW1990 [17],Active
same,Activity,SW1990 [18],Active
same,Activity,SW1990 [19],Active
same,Activity,SW1990 [20],Active
same,Activity,SW1990 [21],Active
same,Activity,SW1990 [22],Active
same,Activity,SW1990 [23],Active
Cc1noc(C)c1-c1ccc2c(c1)C(c1ccccc1)N(Cc1nc3c(C(N)=O)cccc3[nH]1)C(=O)N2C (stereo not given),Activity,[24],Non-Toxic
same,inhibition,Mus musculus [25],Active
same,Activity,SW1990 [26],14.98%
same,Activity,SW1990 [27],10.13%
same,inhibition,Mus musculus [28],Active
same,inhibition,Mus musculus [29],Active
same,inhibition,SW1990 [30],Active
same,inhibition,SW1990 [31],Active
same,inhibition,Mus musculus [32],Active
same,inhibition,Mus musculus [33],Active
same,Activity,SW1990 [34],Active
same,Activity,SW1990 [35],Active
same,Activity,SW1990 [36],Active
same,Activity,SW1990 [37],Active
same,Activity,SW1990 [38],Active
same,Activity,SW1990 [39],Active
same,inhibition,SW1990 [40],Active
